This is an account of results in patent publication US20250230172A1 (Vanqua Bio, Inc., priority 2021, published 2025).

Structures are written as SMILES. pEC50: −log10 of the molar value.

In this assay the target is T1, GCase (Homo sapiens, UniProt P04062).
T1 construct: endogenous in cells; host or cells: HeLa cells
T1 sequence (P04062 40-536): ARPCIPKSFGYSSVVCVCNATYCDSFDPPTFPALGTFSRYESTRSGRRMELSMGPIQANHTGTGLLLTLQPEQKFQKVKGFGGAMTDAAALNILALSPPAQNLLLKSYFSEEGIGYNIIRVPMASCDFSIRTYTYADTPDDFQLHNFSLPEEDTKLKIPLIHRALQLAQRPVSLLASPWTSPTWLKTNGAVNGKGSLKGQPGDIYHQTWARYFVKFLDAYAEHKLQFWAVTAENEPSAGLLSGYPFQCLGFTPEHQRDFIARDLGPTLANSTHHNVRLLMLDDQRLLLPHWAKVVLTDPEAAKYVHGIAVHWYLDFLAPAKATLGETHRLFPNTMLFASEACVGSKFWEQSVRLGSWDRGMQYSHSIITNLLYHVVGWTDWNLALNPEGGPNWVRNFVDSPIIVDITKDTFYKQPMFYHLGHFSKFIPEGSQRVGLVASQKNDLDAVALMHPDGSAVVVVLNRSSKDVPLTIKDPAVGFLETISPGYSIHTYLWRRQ
Nature of the assay: live cell PFB assay in HELA cells for activation of GCase. Type of assay: cell-based. How it is done:
Exemplary compounds were evaluated for activation of GCase in a live cell PFB assay in HELA cells (essentially as described in Ysselstein et al., “LRRK2 kinase activity regulates lysosomal glucocerebrosidase in neurons derived from Parkinson's disease patients” Nature Communications (2019) 10:5570). […] EC50 ranges: A: <10 μM; B: >10-50 μM; C: >50-100 μM; D: >100 μM.
A word on the pEC50: it is the negative decadic logarithm of the EC50, by convention in mol/L. The compound `FC(F)Cn1ncc2ncc(N[C@H]3C[C@@H]4CN(c5ccnc(C(F)(F)F)n5)C[C@@H]4C3)nc21` [Compound 87, 1-(2,2-difluoroethyl)-N-((3aR,5s,6aS)-2-(2-(trifluoromethyl)pyrimidin-4-yl)octahydrocyclopenta[c]pyrrol-5-yl)-1H-pyrazolo[3,4-b]pyrazin-6-amine] showed a pEC50 greater than 5.00. In turn, `COc1nccnc1N1C[C@H]2C[C@H](Nc3cnc4cnn(CC(F)F)c4n3)C[C@H]2C1` [Compound 81, 1-(2,2-difluoroethyl)-N-((3aR,5s,6aS)-2-(3-methoxypyrazin-2-yl)octahydrocyclopenta[c]pyrrol-5-yl)-1H-pyrazolo[3,4-b]pyrazin-6-amine] gave a pEC50 of 4.30 to 5.00. Next, `FC(F)Cn1ncc2ncc(N[C@@H]3CC[C@@H]4CN(c5cccc(C(F)(F)F)n5)C[C@@H]4C3)nc21` (single isomer, unassigned) [Compound 71]: 4.30 to 5.00; `FC(F)Cn1ncc2ncc(-n3ncc4c3CCN(c3ncccc3C(F)(F)F)C4)nc21` [Compound 64, 1-(2,2-difluoroethyl)-6-(5-(3-(trifluoromethyl)pyridin-2-yl)-4,5,6,7-tetrahydro-1H-pyrazolo[4,3-c]pyridin-1-yl)-1H-pyrazolo[3,4-b]pyrazine]: 4.30 to 5.00.

With `FC(F)Cn1ncc2ncc(N3C[C@@H]4CN(c5cccnc5C(F)(F)F)C[C@@H]4C3)nc21` [Compound 49, rac-3-[(3aR,6aS)-5-[1-(2,2-difluoroethyl)-1H-pyrazolo[3,4-b]pyrazin-6-yl]-octahydropyrrolo[3,4-c]pyrrol-2-yl]-2-(trifluoromethyl)pyridine], the pEC50 was 4.30 to 5.00. In turn, `FC(F)Cn1ncc2ncc(N[C@H]3C[C@@H]4CN(c5cncc(C(F)(F)F)c5)C[C@@H]4C3)nc21` [Compound 53, (3aR,5S,6aS)—N-[1-(2,2-difluoroethyl)-1H-pyrazolo[3,4-b]pyrazin-6-yl]-2-[5-(trifluoromethyl)pyridin-3-yl]-octahydrocyclopenta[c]pyrrol-5-amine] had a pEC50 greater than 5.00.

The compound `FC(F)Cn1ncc2ncc(N[C@H]3C[C@@H]4CN(c5cncnc5C(F)(F)F)C[C@@H]4C3)nc21` [Compound 89, 1-(2,2-difluoroethyl)-N-((3aR,5s,6aS)-2-(4-(trifluoromethyl)pyrimidin-5-yl)octahydrocyclopenta[c]pyrrol-5-yl)-1H-pyrazolo[3,4-b]pyrazin-6-amine] showed a pEC50 greater than 5.00. The result for `FC(F)Cn1ncc2ncc(N3CC4CC(Oc5cccc(C(F)(F)F)n5)CC4C3)nc21` (stereo not drawn) [Compound 29, 2-({2-[1-(2,2-difluoroethyl)-1H-pyrazolo[3,4-b]pyrazin-6-yl]-octahydrocyclopenta[c]pyrrol-5-yl}oxy)-6-(trifluoromethyl)pyridine] reads greater than 5.00; that for `FC(F)Cn1ncc2ncc(N[C@H]3CC[C@@H]4CN(c5cccnc5C(F)(F)F)C[C@@H]4C3)nc21` (single isomer, unassigned) [Compound 74], 4.30 to 5.00. Next, `FC(F)Cn1ncc2ncc(N3C[C@H]4CCN(c5cccc(C(F)(F)F)n5)C[C@H]4C3)nc21` (racemic) [Compound 6]: greater than 5.00; `FC(F)Cn1ncc2ncc(N3CC[C@@H]4CN(c5ncccc5C(F)(F)F)C[C@@H]4C3)nc21` (racemic) [Compound 5]: greater than 5.00.

Compound `O=C(c1ccc2ccn(C3COC3)c2c1)N1CC[C@@H]2CN(c3cc(C(F)(F)F)ccn3)C[C@@H]2C1` (racemic) [Compound 16, rac-6-[(3aR,7aS)-2-[4-(trifluoromethyl)pyridin-2-yl]-octahydro-1H-pyrrolo[3,4-c]pyridine-5-carbonyl]-1-(oxetan-3-yl)-1H-indole] had a pEC50 of 4.30 to 5.00. The result for `FC(F)Cn1ncc2ncc(N[C@H]3CC[C@@H]4CN(c5cccc(C(F)(F)F)n5)C[C@@H]4C3)nc21` (single isomer, unassigned) [Compound 70] reads greater than 5.00.

In the case of `O=C1[C@@H]2CN(c3cccc(C(F)(F)F)n3)C[C@@H]2CN1c1cnc2cnn(CC(F)F)c2n1` (racemic) [Compound 62, rac-(3aR,6aS)-2-[1-(2,2-difluoroethyl)-1H-pyrazolo[3,4-b]pyrazin-6-yl]-5-[6-(trifluoromethyl)pyridin-2-yl]-octahydropyrrolo[3,4-c]pyrrol-1-one], the pEC50 was 4.30 to 5.00. Next, `FC(F)Cn1ncc2ncc(N3C[C@@H]4CN(c5cccnc5C(F)(F)F)C[C@H]4C3)nc21` (racemic) [Compound 50, rac-3-[(3aR,6aR)-5-[1-(2,2-difluoroethyl)-1H-pyrazolo[3,4-b]pyrazin-6-yl]-octahydropyrrolo[3,4-c]pyrrol-2-yl]-2-(trifluoromethyl)pyridine]: greater than 5.00; `FC(F)Cn1ncc2ncc(N[C@H]3C[C@@H]4CN(c5ncc(C(F)(F)F)cn5)C[C@@H]4C3)nc21` [Compound 86, 1-(2,2-difluoroethyl)-N-((3aR,5s,6aS)-2-(5-(trifluoromethyl)pyrimidin-2-yl)octahydrocyclopenta[c]pyrrol-5-yl)-1H-pyrazolo[3,4-b]pyrazin-6-amine]: 4.30 to 5.00; `FC(F)Cn1ncc2ncc(N3C[C@H]4CN(c5ccc(C(F)(F)F)nc5)C[C@H]4C3)nc21` [Compound 47, rac-5-[(3aR,6aS)-5-[1-(2,2-difluoroethyl)-1H-pyrazolo[3,4-b]pyrazin-6-yl]-octahydropyrrolo[3,4-c]pyrrol-2-yl]-2-(trifluoromethyl)pyridine]: 4.30 to 5.00. `FC(F)Cn1ncc2ncc(N3CC[C@H]4CN(c5cccc(C(F)(F)F)n5)C[C@H]43)nc21` (racemic) [Compound 59, rac-2-[(3aR,6aR)-1-[1-(2,2-difluoroethyl)-1H-pyrazolo[3,4-b]pyrazin-6-yl]-octahydropyrrolo[3,4-b]pyrrol-5-yl]-6-(trifluoromethyl)pyridine]: the pEC50 is 4.30 to 5.00.

`FC(F)Cn1ncc2ncc(N[C@H]3C[C@@H]4CN(c5cc(C(F)(F)F)ccn5)C[C@@H]4C3)nc21` [Compound 35, (3aR,5R,6aS)—N-[1-(2,2-difluoroethyl)-1H-pyrazolo[3,4-b]pyrazin-6-yl]-2-[4-(trifluoromethyl)pyridin-2-yl]-octahydrocyclopenta[c]pyrrol-5-amine]: the negative logarithm of the EC50 (pEC50) was greater than 5.00. The result for `FC(F)Cn1ncc2ncc(N[C@H]3CC[C@@H]4CN(c5cc(C(F)(F)F)ccn5)C[C@@H]4C3)nc21` (single isomer, unassigned) [Compound 72] reads greater than 5.00; that for `FC(F)Cn1ncc2ncc(N3CC[C@H]4[C@@H]3CCN4c3cc(C(F)(F)F)ccn3)nc21` (racemic) [Compound 56, rac-2-[(3aR,6aR)-4-[1-(2,2-difluoroethyl)-1H-pyrazolo[3,4-b]pyrazin-6-yl]-octahydropyrrolo[3,2-b]pyrrol-1-yl]-4-(trifluoromethyl)pyridine], greater than 5.00; that for `FC(F)Cn1ncc2ncc(N3CC[C@H]4[C@@H]3CCN4c3cccc(C(F)(F)F)n3)nc21` (racemic) [Compound 57, rac-2-[(3aR,6aR)-4-[1-(2,2-difluoroethyl)-1H-pyrazolo[3,4-b]pyrazin-6-yl]-octahydropyrrolo[3,2-b]pyrrol-1-yl]-6-(trifluoromethyl)pyridine], 4.30 to 5.00.

The compound `FC(F)Cn1ncc2ncc(N3C[C@H]4CN(c5cc(C(F)(F)F)ccn5)C[C@H]4C3)nc21` [Compound 43, rac-2-[(3aR,6aS)-5-[1-(2,2-difluoroethyl)-1H-pyrazolo[3,4-b]pyrazin-6-yl]-octahydropyrrolo[3,4-c]pyrrol-2-yl]-4-(trifluoromethyl)pyridine] had a pEC50 greater than 5.00. The result for `O=C1[C@@H]2CN(c3cc(C(F)(F)F)ccn3)C[C@@H]2CN1c1cnc2cnn(CC(F)F)c2n1` (racemic) [Compound 55, rac-(3aR,6aS)-2-[1-(2,2-difluoroethyl)-1H-pyrazolo[3,4-b]pyrazin-6-yl]-5-[4-(trifluoromethyl)pyridin-2-yl]-octahydropyrrolo[3,4-c]pyrrol-1-one] reads 4.30 to 5.00; that for `FC(F)Cn1ncc2ncc(N3C[C@@H]4CN(c5cccc(C(F)(F)F)n5)C[C@H]4C3)nc21` (racemic) [Compound 46, rac-2-[(3aR,6aR)-5-[1-(2,2-difluoroethyl)-1H-pyrazolo[3,4-b]pyrazin-6-yl]-octahydropyrrolo[3,4-c]pyrrol-2-yl]-6-(trifluoromethyl)pyridine], 4.00 to 4.30; that for `Cn1c(-c2ccccc2)c(C(=O)N2CCN3C[C@H](Oc4cccnc4C(F)(F)F)C[C@H]3C2)c2nccnc21` [Compound 27, 3-{[(7R,8aS)-2-{5-methyl-6-phenyl-5H-pyrrolo[2,3-b]pyrazine-7-carbonyl}-octahydropyrrolo[1,2-a]pyrazin-7-yl]oxy}-2-(trifluoromethyl)pyridine], 4.00 to 4.30. With `FC(F)Cn1ncc2ncc(N[C@@H]3C[C@@H]4CN(c5cncc(C(F)(F)F)c5)C[C@@H]4C3)nc21` [Compound 52, (3aR,5S,6aS)—N-[1-(2,2-difluoroethyl)-1H-pyrazolo[3,4-b]pyrazin-6-yl]-2-[5-(trifluoromethyl)pyridin-3-yl]-octahydrocyclopenta[c]pyrrol-5-amine], the pEC50 was greater than 5.00.
